Measured values from patent publication US11180483B2, “Substituted reverse pyrimidine Bmi-1 inhibitors” (PTC Therapeutics, Inc., priority 2012, dated 2021).

The molecules below were run on Bmi-1 (assay: Sandwich ELISA Assay (Bmi-1 ELISA) in HT-1080 cells).
Type: cell-based
Method in brief: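 HT-1080 cells exposed to compound in 0.5% final DMSO for 40-48 h at 37 °C, then lysed. Bmi-1 was quantified by sandwich ELISA: mouse monoclonal capture, rabbit anti-Bmi-1 detection, HRP anti-rabbit and TMB. Read at OD450 (OD570 reference) against a recombinant GST-Bmi-1 standard curve (0-8000 pg/mL).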

Row | EC50 [nM] | Compound
1 | 1 to 10 | Cc1ccc(Nc2nc(-n3c(C)nc4cc(F)c(F)cc43)nc(N)c2F)cc1 [Cpd 213, 2-(5,6-difluoro-2-methyl-1H-benzimidazol-1-yl)-5-fluoro-N-(4-methylphenyl)pyrimidine-4,6-diamine]
2 | 100 to 3000 | Cc1nc2ccc(F)cc2n1-c1nc(N)c(F)c(Nc2cccc(Cl)c2)n1 [Cpd 190, N-(3-chlorophenyl)-5-fluoro-2-(6-fluoro-2-methyl-1H-benzimidazol-1-yl)pyrimidine-4,6-diamine]
3 | 10 to 100 | Cc1nc2ccccc2n1-c1nc(N)cc(Nc2ccc(OC(F)F)c(F)c2)n1 [Cpd 235, N-[4-(difluoromethoxy)-3-fluorophenyl]-2-(2-methyl-1H-benzimidazol-1-yl)pyrimidine-4,6-diamine]
4 | 100 to 3000 | Cc1nn2ccccc2c1-c1nc(N)c(F)c(Nc2ccc(OC(F)F)cc2)n1 [Cpd 173, N-[4-(difluoromethoxy)phenyl]-5-fluoro-2-(2-methylpyrazolo[1,5-a]pyridin-3-yl)pyrimidine-4,6-diamine]
5 | 100 to 3000 | Cc1nc2ccccn2c1-c1nc(N)c(F)c(Nc2ccc(OC(F)F)c(F)c2)n1 [Cpd 171, N-[4-(difluoromethoxy)-3-fluorophenyl]-5-fluoro-2-(2-methylimidazo[1,2-a]pyridin-3-yl)pyrimidine-4,6-diamine]
6 | 10 to 100 | COc1ccc2nc(C)n(-c3nc(N)c(F)c(Nc4ccc(C)cc4)n3)c2c1 [Cpd 248, 5-fluoro-2-(6-methoxy-2-methyl-1H-benzimidazol-1-yl)-N-(4-methylphenyl)pyrimidine-4,6-diamine]
7 | 1 to 10 | Cc1ccc(Nc2cc(N)nc(-n3c(C)nc4ccc(F)cc43)n2)cc1 [Cpd 264, 2-(6-fluoro-2-methyl-1H-benzimidazol-1-yl)-N-(4-methylphenyl)pyrimidine-4,6-diamine]
8 | 1 to 10 | COc1ccc(Nc2cc(N)nc(-n3c(C)nc4ccc(F)cc43)n2)cc1 [Cpd 265, 2-(6-fluoro-2-methyl-1H-benzimidazol-1-yl)-N-(4-methoxyphenyl)pyrimidine-4,6-diamine]
9 | 1 to 10 | Cc1nc2ccccc2n1-c1nc(N)cc(Nc2ccc(N(C)C)cc2)n1 [Cpd 198, N-[4-(dimethylamino)phenyl]-2-(2-methyl-1H-benzimidazol-1-yl)pyrimidine-4,6-diamine]
10 | 1 to 10 | Cc1nc2c(F)cc(F)cc2n1-c1nc(N)c(F)c(Nc2ccc3c(c2)OCO3)n1 [Cpd 240, N-(1,3-benzodioxol-5-yl)-2-(4,6-difluoro-2-methyl-1H-benzimidazol-1-yl)-5-fluoropyrimidine-4,6-diamine]
11 | 1 to 10 | COc1ccc(Nc2nc(-n3c(C)nc4ccccc43)nc(N)c2F)cc1 [Cpd 200, 5-fluoro-N-(4-methoxyphenyl)-2-(2-methyl-1H-benzimidazol-1-yl)pyrimidine-4,6-diamine]
12 | 1 to 10 | CCc1nc2ccccc2n1-c1nc(N)c(F)c(Nc2ccc3c(c2)OCO3)n1 [Cpd 273, N-(1,3-benzodioxol-5-yl)-2-(2-ethyl-1H-benzimidazol-1-yl)-5-fluoropyrimidine-4,6-diamine]
13 | 100 to 3000 | Cc1nc2ccccc2n1-c1nc(N)c(F)c(Nc2ccc(C#N)cc2)n1 [Cpd 202, 4-{[6-amino-5-fluoro-2-(2-methyl-1H-benzimidazol-1-yl)pyrimidin-4-yl]amino}benzonitrile]
14 | 10 to 100 | CCc1nc2ccccc2n1-c1nc(N)c(F)c(Nc2ccc(Cl)c(F)c2)n1 [Cpd 275, N-(4-chloro-3-fluorophenyl)-2-(2-ethyl-1H-benzimidazol-1-yl)-5-fluoropyrimidine-4,6-diamine]
15 | 100 to 3000 | Cc1nn2ccccc2c1-c1nc(N)c(F)c(Nc2ccc(C(F)(F)F)cc2)n1 [Cpd 177, 5-fluoro-2-(2-methylpyrazolo[1,5-a]pyridin-3-yl)-N-[4-(trifluoromethyl)phenyl]pyrimidine-4,6-diamine]

Further lines, the molecule ahead of its results:

Row | Compound | EC50 [nM]
16 | Nc1nc(-n2c(C3CC3)nc3c(F)cccc32)nc(Nc2ccc(OC(F)F)cc2)c1F [Cpd 141, 2-(2-cyclopropyl-4-fluoro-1H-benzimidazol-1-yl)-N-[4-(difluoromethoxy)phenyl]-5-fluoropyrimidine-4,6-diamine] | 10 to 100
17 | Cc1nc2ccccc2n1-c1nc(N)cc(Nc2ccc(C(F)(F)F)c(F)c2)n1 [Cpd 80, N-[3-fluoro-4-(trifluoromethyl)phenyl]-2-(2-methyl-1H-benzimidazol-1-yl)pyrimidine-4,6-diamine] | 10 to 100
18 | CCc1nc2ccccc2n1-c1nc(N)c(F)c(Nc2ccc(OC(F)F)c(F)c2)n1 [Cpd 124, N-[4-(difluoromethoxy)-3-fluorophenyl]-2-(2-ethyl-1H-benzimidazol-1-yl)-5-fluoropyrimidine-4,6-diamine] | 10 to 100
19 | Cc1nc2cc(Cl)ccc2n1-c1nc(N)c(F)c(Nc2ccc(OC(F)F)cc2)n1 [Cpd 159, 2-(5-chloro-2-methyl-1H-benzimidazol-1-yl)-N-[4-(difluoromethoxy)phenyl]-5-fluoropyrimidine-4,6-diamine] | 100 to 3000
20 | Cc1nc2c(F)cc(F)cc2n1-c1nc(N)cc(Nc2ccc(C(F)(F)F)cc2)n1 [Cpd 88, 2-(4,6-difluoro-2-methyl-1H-benzimidazol-1-yl)-N-[4-(trifluoromethyl)phenyl]pyrimidine-4,6-diamine] | 10 to 100
21 | COc1ccc(Nc2ccnc(-n3c(C)nc4ccccc43)n2)cc1 [Cpd 1, N-(4-methoxyphenyl)-2-(2-methyl-1H-benzimidazol-1-yl)pyrimidin-4-amine] | 10 to 100
22 | Cc1nc2ccccc2n1-c1nccc(Nc2ccc(OC(F)F)cc2)n1 [Cpd 61, N-[4-(difluoromethoxy)phenyl]-2-(2-methyl-1H-benzimidazol-1-yl)pyrimidin-4-amine] | 100 to 3000
23 | CCc1nc2ccc(F)cc2n1-c1nc(N)c(F)c(Nc2ccc(OC(F)F)cc2)n1 [Cpd 165, N-[4-(difluoromethoxy)phenyl]-2-(2-ethyl-6-fluoro-1H-benzimidazol-1-yl)-5-fluoropyrimidine-4,6-diamine] | 1 to 10
24 | Cc1nc2ccc(Cl)cc2n1-c1nc(N)cc(Nc2ccc(C(F)(F)F)c(F)c2)n1 [Cpd 96, 2-(6-chloro-2-methyl-1H-benzimidazol-1-yl)-N-[3-fluoro-4-(trifluoromethyl)phenyl]pyrimidine-4,6-diamine] | 100 to 3000
25 | Cc1nc2ccccc2n1-c1nc(NCCO)cc(Nc2ccc(OC(F)F)cc2)n1 [Cpd 52, 2-{[6-{[4-(difluoromethoxy)phenyl]amino}-2-(2-methyl-1H-benzimidazol-1-yl)pyrimidin-4-yl]amino}ethanol] | 100 to 3000
26 | Cc1nc2cc(Cl)ccc2n1-c1nc(N)cc(Nc2ccc(C(F)(F)F)c(F)c2)n1 [Cpd 98, 2-(5-chloro-2-methyl-1H-benzimidazol-1-yl)-N-[3-fluoro-4-(trifluoromethyl)phenyl]pyrimidine-4,6-diamine] | 100 to 3000
27 | CCc1nc2ccccc2n1-c1nc(N)c(Cl)c(Nc2ccc(OC(F)F)cc2)n1 [Cpd 168, 5-chloro-N-[4-(difluoromethoxy)phenyl]-2-(2-ethyl-1H-benzimidazol-1-yl)pyrimidine-4,6-diamine] | 100 to 3000
28 | Cc1nc2ccccn2c1-c1nc(N)c(F)c(Nc2ccc(C(F)(F)F)cc2)n1 [Cpd 169, 5-fluoro-2-(2-methylimidazo[1,2-a]pyridin-3-yl)-N-[4-(trifluoromethyl)phenyl]pyrimidine-4,6-diamine] | 100 to 3000
29 | COc1ccc2nc(C(F)(F)F)c(-c3nccc(Nc4ccc(C(F)(F)F)cc4)n3)n2c1 [Cpd 48, 2-[6-methoxy-2-(trifluoromethyl)imidazo[1,2-a]pyridin-3-yl]-N-[4-(trifluoromethyl)phenyl]pyrimidin-4-amine] | 100 to 3000
30 | Cc1ccc2nc(C)n(-c3nc(N)cc(Nc4ccc(C(F)(F)F)cc4)n3)c2c1 [Cpd 86, 2-(2,6-dimethyl-1H-benzimidazol-1-yl)-N-[4-(trifluoromethyl)phenyl]pyrimidine-4,6-diamine] | 10 to 100
31 | CCc1nc2c(F)cc(F)cc2n1-c1nc(N)c(F)c(Nc2ccc(OC(F)F)c(F)c2)n1 [Cpd 130, N-[4-(difluoromethoxy)-3-fluorophenyl]-2-(2-ethyl-4,6-difluoro-1H-benzimidazol-1-yl)-5-fluoropyrimidine-4,6-diamine] | 10 to 100
32 | C=Cc1ccc2nc(C)n(-c3nc(N)cc(Nc4ccc(C(F)(F)F)cc4)n3)c2c1 [Cpd 91, 2-(6-ethenyl-2-methyl-1H-benzimidazol-1-yl)-N-[4-(trifluoromethyl)phenyl]pyrimidine-4,6-diamine] | 100 to 3000
33 | FC(F)Oc1ccc(Nc2ccnc(-c3c(C(F)(F)F)nc4ccc(Cl)cn34)n2)cc1 [Cpd 16, 2-[6-chloro-2-(trifluoromethyl)imidazo[1,2-a]pyridin-3-yl]-N-[4-(difluoromethoxy)phenyl]pyrimidin-4-amine] | 10 to 100
34 | Cc1nc2ccc(Cl)cc2n1-c1nc(N)c(F)c(Nc2ccc(C(F)(F)F)cc2)n1 [Cpd 160, 2-(6-chloro-2-methyl-1H-benzimidazol-1-yl)-5-fluoro-N-[4-(trifluoromethyl)phenyl]pyrimidine-4,6-diamine] | 10 to 100
35 | COc1ccc(Nc2ccnc(-n3c(C)nc4ccccc43)n2)cc1Cl [Cpd 40, N-(3-chloro-4-methoxyphenyl)-2-(2-methyl-1H-benzimidazol-1-yl)pyrimidin-4-amine] | 100 to 3000
36 | COc1ccc(Nc2ccnc(-c3c(C(F)(F)F)n(C)c4ccc(Cl)cc34)n2)cc1 [Cpd 23, 2-[5-chloro-1-methyl-2-(trifluoromethyl)-1H-indol-3-yl]-N-(4-methoxyphenyl)pyrimidin-4-amine] | 100 to 3000
37 | Cc1ccc(Nc2nc(-c3c(C(F)(F)F)nc4ccccn34)ncc2Cl)cc1 [Cpd 44, 5-chloro-N-(4-methylphenyl)-2-[2-(trifluoromethyl)imidazo[1,2-a]pyridin-3-yl]pyrimidin-4-amine] | 100 to 3000
38 | Cc1nc2cc(F)c(F)cc2n1-c1nc(N)cc(Nc2ccc(OC(F)F)cc2)n1 [Cpd 102, N-[4-(difluoromethoxy)phenyl]-2-(5,6-difluoro-2-methyl-1H-benzimidazol-1-yl)pyrimidine-4,6-diamine] | 10 to 100
